Consider one substance from article PMC6613200 (International Journal of Nanomedicine, 2019).

In one experiment the test system is HSA. The experiment in a line: SPR selectivity, peptide vs interfering HSA. In kind it is binding, human. The settings on record: mixture containing 20 nM BSA and 20 nM HSA with hCG; 100 μM peptide.
Experiment [1] can be described thus: SPR binding of peptide aptamer to Au/Cys/carboxyl-GO chip. The settings on record: carboxyl-GO with peptide aptamer, 1:1 Langmuir model.
The subject of the next experiment is BSA. Kind of experiment: SPR selectivity, peptide vs interfering BSA. The format is binding, bovine. The settings on record: mixture containing 20 nM BSA and 20 nM HSA with hCG; 100 μM peptide.

Turning to (N-)PPLRINRHILTR(-C) [peptide aptamer], the “interaction of peptide with interfering protein” value is “no significant interaction between the two proteins and the peptide” in the experiment on HSA; “no significant interaction between the two proteins and the peptide” with BSA. Also, the KA in experiment [1] (flow rate 30 µL/min) amounted to 2.81e+07 M⁻¹. Also, the “KD (kd/ka)” value in experiment [1] (flow rate 30 µL/min) is reported as 0.36×10^–7 M. In addition, the values for the association rate ka in experiment [1] (flow rate 30 µL/min), in experiment [1] (flow rate 60 µL/min) and in experiment [1] (flow rate 90 µL/min) were 32.57 ×10[4] M^−1 s^−1, 13.75 ×10[4] M^−1 s^−1 and 7.89 ×10[4] M^−1 s^−1, respectively.
